Measured values: patent US6544521B2, “Immunoreactive peptide CTL epitopes of human cytomegalovirus pp150” (City of Hope, priority 2000, dated 2003)

Test system: pp150-specific T cell clones
Experiment: Chromium release assay with peptide-sensitized EBVLCL and pp150-specific CTL clones (epitope mapping)
Assay type: cell-based, human
Conditions: persons having the indicated HLA allele; target cells sensitized with peptide at 50 μM

Sequence | Number of Individuals Tested
QTVTSTPVQGR (listed as Human cytomegalovirus) [SEQ ID NO: 2] | 2/2
TTVYPPSSTAK (listed as Human cytomegalovirus) [SEQ ID NO: 1] | 2/2
